Data as given in ChEMBL document CHEMBL1152073, “Synthesis of novel fluorescently labeled sphingomyelin derivatives useful for sphingomyelinase assay” (Bioorg Med Chem Lett, 1997).

Target: T1, Sphingomyelin phosphodiesterase (Homo sapiens) (UniProt P17405)
T1 sequence (whole entry): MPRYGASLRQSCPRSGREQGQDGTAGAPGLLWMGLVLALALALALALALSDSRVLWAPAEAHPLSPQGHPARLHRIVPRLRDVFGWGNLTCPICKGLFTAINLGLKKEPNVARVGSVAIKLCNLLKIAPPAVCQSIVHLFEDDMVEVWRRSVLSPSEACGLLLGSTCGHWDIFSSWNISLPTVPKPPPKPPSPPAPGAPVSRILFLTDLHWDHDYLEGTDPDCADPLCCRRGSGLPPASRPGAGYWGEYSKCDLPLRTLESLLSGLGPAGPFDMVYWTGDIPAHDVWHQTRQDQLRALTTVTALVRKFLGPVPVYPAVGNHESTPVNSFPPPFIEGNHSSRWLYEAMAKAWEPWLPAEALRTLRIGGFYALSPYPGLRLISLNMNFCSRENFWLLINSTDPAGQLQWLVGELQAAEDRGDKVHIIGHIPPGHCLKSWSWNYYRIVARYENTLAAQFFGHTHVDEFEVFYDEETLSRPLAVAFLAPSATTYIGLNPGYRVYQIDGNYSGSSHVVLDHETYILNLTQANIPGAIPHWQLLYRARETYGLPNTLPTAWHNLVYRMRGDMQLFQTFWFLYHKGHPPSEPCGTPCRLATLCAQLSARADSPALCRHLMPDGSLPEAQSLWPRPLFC
Assay: Compound was evaluated as a substrate for human placental acidic sphingomyelinase utilizing the usual substrate C14-labeled sphingomyelin.

Row | Cleavage rate [nM U-1 hr-1] | SMILES
1 | 1.72 | CCCCCCCCCCCCC/C=C/[C@@H](O)[C@H](COP(=O)([O-])OCC[N+](C)(C)C)NC(=O)CCCCCCCCCCCCCCCCCCC
2 | 0.29 | CCCCCCCCCCCCC/C=C/[C@@H](O)[C@H](COP(=O)(O)OCCCCCCNc1ccc([N+](=O)[O-])c2nonc12)NC(=O)CCCCCNC(=O)CCCC[C@@H]1SC[C@@H]2NC(=O)N[C@@H]21
3 | 1.32 | CCCCCCCCCCCCC/C=C/[C@@H](O)[C@H](COP(=O)(O)OCC[N+](C)(C)CCNS(=O)(=O)c1cccc2c(N(C)C)cccc12)NC(=O)CCCCCCCCCCCCCCCCCCC
4 | 0.51 | CCCCCCCCCCCCC/C=C/[C@@H](O)[C@H](COP(=O)(O)OCCCCNS(=O)(=O)c1cccc2c(N(C)C)cccc12)NC(=O)CCCCCNC(=O)CCCC[C@@H]1SC[C@@H]2NC(=O)N[C@@H]21
